Results reported in US9029337B2, “Modulation of factor 7 expression” (Isis Pharmaceuticals, Inc., priority 2007, dated 2015).
Strand notation (5' to 3'): a small letter for the sugar, then the base; units joined by * are phosphorothioate-linked, units joined directly phosphodiester-linked; [ ] holds rarer units or linkages, { } end groups; capitals alone tell only the bases. e = 2'-O-(2-methoxyethyl) (MOE); [5mC] = 5-methylcytosine; d = 2'-deoxy (DNA)

Columns and labels:
human Factor 7 mRNA [1] = experiment: Antisense inhibition of human Factor 7 mRNA in HepB3 cells, 50 nM antisense oligonucleotide, lipofectin; format: cell-based; settings: for % Inhibition: lipofectin, approximately 24 hours
Procedure, shortened: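 Percent inhibition, untreated cells as reference: derived from RNA collected about 24 hours post-transfection of 4,000-cell wells, with the human RTS 2927 primer probe set and adjustment for total RNA content (RIBOGREEN®).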

human Factor 7 mRNA [2] = experiment: Dose-dependent antisense inhibition of human Factor 7 in HepB3 cells, lipofectin; format: cell-based; settings: for percent inhibition of Factor 7: approximately 16 hours; for percent inhibition of Factor 7 mRNA, relative to untreated control cells: HepB3 cells, approx. 16 hours (Table 14)
Experimental: Cells were plated at a density of 4,000 cells per well and treated with lipofectin reagent with 3.125 nM, 6.25 nM, 12.5 nM, 25 nM, 50 nM, and 100 nM concentrations of antisense oligonucleotide, as indicated in Table 3. After a treatment period of approximately 16 hours, RNA was isolated from the cells and Factor 7 mRNA levels were measured by real-time RT-PCR, as described herein. Human Factor 7 primer probe set RTS 2927 (forward sequence: […], incorporated herein as SEQ ID NO: 164; reverse sequence: […], incorporated herein as SEQ ID NO: 165; probe sequence: TGGGTGGTCTCCGCGGCCX, incorporated herein as SEQ ID NO: 166) was used to measure mRNA levels. Factor 7 mRNA levels were adjusted according to total RNA content as measured by RIBOGREEN®. Results are presented as percent inhibition of Factor 7, relative to untreated control cells.
Cells were plated at a density of 4,000 cells per well and transfected using lipofectin reagent with 6.25 nM, 12.5 nM, 25.0 nM, 50.0 nM, and 100.0 nM concentrations of antisense oligonucleotide, as indicated in Table 7. After a treatment period of approximately 16 hours, RNA was isolated from the cells and Factor 7 mRNA levels were measured by real-time RT-PCR, as described herein. Human Factor 7 primer probe set RTS 2927 was used to measure mRNA levels. Factor 7 mRNA levels were adjusted according to total RNA content as measured by RIBOGREEN®. Results are presented as percent inhibition of Factor 7, relative to untreated control cells.
Cells were plated at a density of 4,000 cells per well and transfected using lipofectin reagent with 3.125 nM, 6.25 nM, 12.5 nM, 25 nM, 50 nM, and 100 nM concentrations of antisense oligonucleotide, as specified in Table 14. After a treatment period of approximately 16 hours, RNA was isolated from the cells and Factor 7 mRNA levels were measured by quantitative real-time PCR. Human Factor 7 primer probe set RTS 2927 was used to measure mRNA levels. Factor 7 mRNA levels were adjusted according to total RNA content, as measured by RIBOGREEN®. Results are presented as percent inhibition of Factor 7, relative to untreated control cells.

[3] = 50 nM antisense oligonucleotide, Factor 7 mRNA by real-time RT-PCR (RTS 2927), relative to untreated control
[4] = oligonucleotides targeted to nucleobases 14707 to 14732 of SEQ ID NO: 1 (Table 11)
[5] = Table 1, 50 nM, relative to untreated control cells

Substance | % Inhibition (human Factor 7 mRNA [1]; [3]) [%] | percent inhibition of Factor 7 (human Factor 7 mRNA [2]; Table 7, 6.25 nM) [%] | percent inhibition of Factor 7 (human Factor 7 mRNA [2]; Table 7, 12.5 nM) [%] | percent inhibition of Factor 7 (human Factor 7 mRNA [2]; Table 7, 25.0 nM) [%] | percent inhibition of Factor 7 (human Factor 7 mRNA [2]; Table 7, 50.0 nM) [%] | percent inhibition of Factor 7 (human Factor 7 mRNA [2]; Table 7, 100.0 nM) [%] | % Inhibition (human Factor 7 mRNA [1]; [5]) [%] | percent inhibition of Factor 7 (human Factor 7 mRNA [2]; Table 3, 3.125 nM) [%] | percent inhibition of Factor 7 (human Factor 7 mRNA [2]; Table 3, 6.25 nM) [%] | percent inhibition of Factor 7 (human Factor 7 mRNA [2]; Table 3, 12.5 nM) [%] | percent inhibition of Factor 7 (human Factor 7 mRNA [2]; Table 3, 25.0 nM) [%] | percent inhibition of Factor 7 (human Factor 7 mRNA [2]; Table 3, 50.0 nM) [%] | percent inhibition of Factor 7 (human Factor 7 mRNA [2]; Table 3, 100.0 nM) [%] | also measured
416455 (antisense e[5mC]*eG*e[5mC]*e[5mC]*eG*dG*d[5mC]*dT*d[5mC]*dT*dG*d[5mC]*dT*d[5mC]*dA*eT*e[5mC]*e[5mC]*e[5mC]*e[5mC]) [compound 416455] | 72 | 28 | 44 | 64 | 78 | 87 |  |  |  |  |  |  |  | % Inhibition (human Factor 7 mRNA levels) (human Factor 7 mRNA [1]; oligonucleotides targeted to nucleobases 13760 to 13789 of SEQ ID NO: 1 (Table 10)): 51%
416549 (antisense eG*eA*e[5mC]*eA*eA*dT*dG*dG*dT*d[5mC]*dA*dG*dG*dG*d[5mC]*eT*eG*eG*eT*eT) [compound 416549] | 68 | 38 | 44 | 63 | 73 | 78 |  |  |  |  |  |  |  | % Inhibition (human Factor 7 mRNA levels) (human Factor 7 mRNA [1]; oligonucleotides targeted to nucleobases 11830 to 11869 of SEQ ID NO: 1 (Table 9)): 69%
416477 (antisense e[5mC]*eA*eG*e[5mC]*e[5mC]*dT*dG*dA*dG*dG*d[5mC]*d[5mC]*dA*dG*d[5mC]*eA*eG*eA*eT*e[5mC]) [compound 416477] | 74 | 21 | 46 | 64 | 78 | 87 |  |  |  |  |  |  |  | % Inhibition (human Factor 7 mRNA levels) (human Factor 7 mRNA [1]; [4]): 71%
416449 (antisense eT*eA*eG*eG*eT*dA*dT*dT*dT*dT*dT*d[5mC]*d[5mC]*dA*d[5mC]*eA*eT*eG*eG*eA) [compound 416449] | 68 | 19 | 33 | 45 | 65 | 85 |  |  |  |  |  |  |  | 
416472 (antisense e[5mC]*eA*eG*e[5mC]*e[5mC]*dT*dT*dG*dG*d[5mC]*dT*dT*dT*d[5mC]*dT*e[5mC]*eT*e[5mC]*e[5mC]*eA) [compound 416472] | 76 | 16 | 44 | 64 | 80 | 88 |  |  |  |  |  |  |  | 
407910 (antisense eA*eG*eT*e[5mC]*e[5mC]*dT*dT*dG*d[5mC]*dT*dG*d[5mC]*d[5mC]*dA*dT*e[5mC]*e[5mC]*eG*eA*eG) [compound 407910] | 72 |  |  |  |  |  | 86 | 31 | 44 | 69 | 68 | 82 | 89 | 
407936 (antisense eG*eG*e[5mC]*eA*eT*dT*d[5mC]*dG*d[5mC]*d[5mC]*dA*d[5mC]*d[5mC]*dA*dT*eG*e[5mC]*eA*eT*eG) [compound 407936] |  |  |  |  |  |  | 91 | 45 | 77 | 79 | 86 | 91 | 90 | 
416446 (antisense eG*eG*eT*e[5mC]*eA*d[5mC]*dT*dG*d[5mC]*dA*dG*dT*dA*d[5mC]*dT*eG*e[5mC]*eT*e[5mC]*eA) [compound 416446] | 64 | 25 | 24 | 50 | 69 | 64 |  |  |  |  |  |  |  | 
407900 (antisense e[5mC]*e[5mC]*e[5mC]*e[5mC]*eA*d[5mC]*dA*dA*dT*dT*d[5mC]*dG*dG*d[5mC]*d[5mC]*eT*eT*eG*eG*eG) [compound 407900] | 78 | 18 | 36 | 61 | 82 | 91 | 91 | 52 | 58 | 80 | 87 | 94 | 91 | 
407643 (antisense e[5mC]*eA*e[5mC]*eA*e[5mC]*dA*dT*dG*dG*dA*dG*dT*d[5mC]*dA*dG*e[5mC]*eA*eT*e[5mC]*eG) [compound 407643] | 80 | 36 | 49 | 70 | 83 | 93 | 84 | 16 | 59 | 68 | 76 | 92 | 95 | % Inhibition (human Factor 7 mRNA levels) (human Factor 7 mRNA [1]; oligonucleotides targeted to nucleobases 15098 to 15122 of SEQ ID NO: 1 (Table 12)): 69%
416438 (antisense e[5mC]*eA*eG*eG*eA*dG*d[5mC]*d[5mC]*d[5mC]*d[5mC]*d[5mC]*dA*dT*dT*d[5mC]*eT*eG*eG*e[5mC]*eA) [compound 416438] | 63 | 11 | 33 | 56 | 75 | 82 |  |  |  |  |  |  |  | 
407594 (antisense e[5mC]*e[5mC]*eT*eG*e[5mC]*dA*dG*d[5mC]*d[5mC]*dA*dG*dG*d[5mC]*dA*dG*e[5mC]*e[5mC]*e[5mC]*eT*eG) [compound 407594] |  |  |  |  |  |  | 87 | 10 | 34 | 63 | 77 | 84 | 80 | 
407606 (antisense e[5mC]*eT*eG*eG*eT*d[5mC]*d[5mC]*dT*dT*dG*d[5mC]*dA*dG*dG*dA*eG*e[5mC]*e[5mC]*e[5mC]*e[5mC]) [compound 407606] | 57 |  |  |  |  |  | 89 | 20 | 0 | 49 | 55 | 83 | 84 | 
407641 (antisense e[5mC]*e[5mC]*eT*eG*eA*dG*dG*d[5mC]*d[5mC]*dA*dG*d[5mC]*dA*dG*dA*eT*e[5mC]*eA*e[5mC]*eG) [compound 407641] | 73 |  |  |  |  |  | 94 | 53 | 53 | 71 | 84 | 88 | 89 | % Inhibition (human Factor 7 mRNA levels) (human Factor 7 mRNA [1]; [4]): 68%
422294 (antisense eG*eA*dG*dT*dT*d[5mC]*dT*dG*d[5mC]*dA*dG*dG*dA*dG*d[5mC]*eG*eG*e[5mC]*e[5mC]*eT) [compound 422294] |  |  |  |  |  |  |  |  |  |  |  |  |  | % Inhibition of human Factor 7 mRNA levels (human Factor 7 mRNA [1]; gapmers targeted to nucleobases 4868 to 4899 of SEQ ID NO: 1, Table 8): 78%; percent inhibition of Factor 7 mRNA, relative to untreated control cells (human Factor 7 mRNA [2]; 3.125 nM): 9%; percent inhibition of Factor 7 mRNA, relative to untreated control cells (human Factor 7 mRNA [2]; 12.5 nM): 32%; percent inhibition of Factor 7 mRNA, relative to untreated control cells (human Factor 7 mRNA [2]; 25 nM): 61%; percent inhibition of Factor 7 mRNA, relative to untreated control cells (human Factor 7 mRNA [2]; 50 nM): 77%; percent inhibition of Factor 7 mRNA, relative to untreated control cells (human Factor 7 mRNA [2]; 100 nM): 84%; percent inhibition of Factor 7 mRNA, relative to untreated control cells (human Factor 7 mRNA [2]): 21%
